Source: patent US20170273922A1, “UREA AND BIS-UREA BASED COMPOUNDS AND ANALOGUES THEREOF USEFUL IN THE TREATMENT OF ANDROGEN RECEPTOR MEDIATED DISEASES OR DISORDERS” (THE ROYAL INSTITUTION FOR THE ADVACEMENT OF LEARNING/MCGILL …, priority 2014, published 2017)
Changes are numbered by the printed parent chain. Entries after “also recorded” stand apart in the source; their conditions may differ.

Experiments:
[1] = molecular target: T1, WT full-length AR (Homo sapiens, UniProt P10275); experiment: WT full-length AR PSA-luc reporter assay (DHT-induced) in transfected cells; conditions: 24 h; for inhibition of DHT-induced activation of WT full-length AR (PSA-luc): 10 nM DHT; for agonism of full-length AR WT (PSA-luc): absence of DHT, PC3 cells
T1 sequence (P10275 1-920): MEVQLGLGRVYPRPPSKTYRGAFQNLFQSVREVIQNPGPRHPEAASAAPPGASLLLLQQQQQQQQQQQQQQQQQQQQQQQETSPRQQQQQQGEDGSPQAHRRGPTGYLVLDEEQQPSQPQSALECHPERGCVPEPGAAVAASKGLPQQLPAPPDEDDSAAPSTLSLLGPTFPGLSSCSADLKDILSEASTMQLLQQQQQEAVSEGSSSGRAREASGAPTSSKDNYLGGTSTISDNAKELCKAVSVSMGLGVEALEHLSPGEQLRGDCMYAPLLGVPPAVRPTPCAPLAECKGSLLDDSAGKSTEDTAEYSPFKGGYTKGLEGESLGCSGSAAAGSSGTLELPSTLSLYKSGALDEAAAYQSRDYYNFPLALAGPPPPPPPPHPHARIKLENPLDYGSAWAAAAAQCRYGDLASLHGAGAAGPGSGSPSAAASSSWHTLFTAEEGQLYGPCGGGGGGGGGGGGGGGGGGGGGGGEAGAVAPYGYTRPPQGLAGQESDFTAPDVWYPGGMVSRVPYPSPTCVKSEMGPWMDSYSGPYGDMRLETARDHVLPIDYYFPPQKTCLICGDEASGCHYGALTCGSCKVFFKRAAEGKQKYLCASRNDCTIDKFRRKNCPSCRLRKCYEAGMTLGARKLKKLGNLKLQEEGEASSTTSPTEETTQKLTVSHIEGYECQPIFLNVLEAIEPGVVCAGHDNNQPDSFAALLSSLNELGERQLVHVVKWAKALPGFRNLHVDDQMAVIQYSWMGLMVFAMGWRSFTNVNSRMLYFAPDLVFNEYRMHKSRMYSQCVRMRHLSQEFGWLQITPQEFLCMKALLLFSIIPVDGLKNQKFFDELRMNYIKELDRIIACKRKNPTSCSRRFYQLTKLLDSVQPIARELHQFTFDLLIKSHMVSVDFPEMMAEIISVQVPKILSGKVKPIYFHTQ

[2] = molecular target: T2, endogenous AR T877A mutant in LNCaP cells (Homo sapiens, UniProt P10275, T878A); experiment: PSA-luc reporter assay in LNCaP cells (endogenous AR T877A mutant); assay type: cell-based
T2 construct: LNCaP cells, which express endogenous AR T877A mutant; endogenous in cells; host or cells: LNCaP
T2 sequence (P10275 1-920 T878A): T1 sequence (P10275 1-920) with T878A
Protocol: Experiments were in duplicate and repeated three times. […] LNCaP cells in whole medium were exposed to DMSO vehicle control or compounds for 24 h.

[3] = tested on: 22Rv1 cells; experiment: MTT assay (cytotoxicity), 22Rv1 cells; assay type: cell-based; conditions: 22Rv1 cells, 72 h, Table 4.2
How it was run: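 Cells grown in RPMI 1640 with 10% FBS were seeded at 6-7×10^3 per well, left overnight, then exposed to test compounds at designated concentrations or DMSO vehicle for 72 h in fresh medium. Viability was read by MTT; triplicates, repeated at least twice.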

[4] = molecular target: T3, IRF3DBD-AR(1-547) (Homo sapiens, UniProt P10275); experiment: IRF3DBD-AR(1-547) ISRE-luc reporter assay; assay type: cell-based; conditions: 24 h; for inhibition of IRF3DBD-AR(1-547)-mediated ISRE-luc activation: HEK293 cells; for inhibition of IRF3-AR(1-547)-dependent ISRE-luc reporter activity: PC3 cells
T3 construct: IRF3-AR(1-547) is the fusion of IRF3 DBD with the AR NTD (1-547); expressed in transfected cells
T3 sequence (P10275 1-547): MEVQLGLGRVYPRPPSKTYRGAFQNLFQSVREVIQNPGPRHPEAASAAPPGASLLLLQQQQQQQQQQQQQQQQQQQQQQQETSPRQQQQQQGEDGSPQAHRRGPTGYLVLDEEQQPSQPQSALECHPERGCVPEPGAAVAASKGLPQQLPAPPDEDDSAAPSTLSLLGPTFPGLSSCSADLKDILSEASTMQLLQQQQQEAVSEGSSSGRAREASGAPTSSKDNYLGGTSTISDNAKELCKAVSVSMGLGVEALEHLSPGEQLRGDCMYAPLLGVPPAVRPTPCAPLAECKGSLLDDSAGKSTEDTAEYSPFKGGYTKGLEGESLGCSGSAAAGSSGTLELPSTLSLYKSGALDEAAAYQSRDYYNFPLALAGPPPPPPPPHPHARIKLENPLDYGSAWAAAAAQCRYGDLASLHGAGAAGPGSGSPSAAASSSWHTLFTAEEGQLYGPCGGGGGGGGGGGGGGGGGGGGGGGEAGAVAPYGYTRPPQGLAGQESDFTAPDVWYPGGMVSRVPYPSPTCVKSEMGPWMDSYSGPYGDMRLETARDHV

SMILES | inhibition of DHT-induced activation of WT full-length AR (PSA-luc) [1] | agonism of full-length AR WT (PSA-luc) [1] | inhibition of DHT-induced activation of endogenous AR in LNCaP cells (PSA-luc) ([2]; 24 h) | IC50 [3] | inhibition of IRF3DBD-AR(1-547)-mediated ISRE-luc activation [4] | IC50 ([2]; FIG. 11) | inhibition of IRF3-AR(1-547)-dependent ISRE-luc reporter activity [4] | inhibitory activity compared with EPI at 25 μM (FIG. 11) ([2]; compound at 2.5 μM) | effect of increasing DHT from 1 nM to 10 nM on inhibitory activity in LNCaP cells ([2]; PSA-luc, 24 h)
N#Cc1ccc(NC(=O)Nc2cccc(C(F)(F)F)c2)cc1C(F)(F)F [Compound 467] | dose-dependently suppressed; also recorded: dose-dependently inhibit | non-agonist | potently inhibit; also recorded: suppressed | 1.7 µM | suppressed | – | – | – | –
O=C(Nc1ccc(Br)nc1)Nc1cc(C(F)(F)F)cc(C(F)(F)F)c1 [Compound 566] | – | – | – | – | targeting the AR-NTD; also recorded: target the AR-NTD | – | – | – | –
O=C(N/C=C/c1cccc(C(F)(F)F)c1)Nc1ccncn1 [Compound 562] | dose-dependently inhibit | – | suppressed; also recorded: potently inhibited; also recorded: good activity | – | targeting the AR-NTD; also recorded: target the AR-NTD | ~1000 nM | potently inhibit | – | –
O=C(Nc1cccc(C(F)(F)F)c1)Nc1ccc(NC(=O)c2ccccc2F)c(C(F)(F)F)c1 [Compound 746] | dose-dependently inhibit | – | suppressed; also recorded: potently inhibited; also recorded: good activity | – | targeting the AR-NTD; also recorded: target the AR-NTD | – | potently inhibit | greater inhibitory activity than EPI at 25 μM | –
O=C(Nc1cccc(C(F)(F)F)c1)Nc1ccc([N+](=O)[O-])c(C(F)(F)F)c1 [Compound 442] | dose-dependently suppressed; also recorded: dose-dependently inhibit | non-agonist | potently inhibit; also recorded: suppressed | 1.5 µM | suppressed | – | – | – | not competed out
N#Cc1ccc(NC(=O)Nc2cccc(C(F)(F)F)c2)cc1Cl [Compound 492] | dose-dependently suppressed; also recorded: dose-dependently inhibit | non-agonist | – | 1.9 µM | – | – | – | – | –
